Source: US20120016009A1, “Optimized Methods For Delivery Of DSRNA Targeting The PCSK9 Gene” (priority 2008, published 2012)
In the oligonucleotide strings, read from the 5' end, every base follows the letter of its sugar. An asterisk marks phosphorothioate; unmarked linkages are phosphodiester. Other units and linkages are bracketed, terminal groups are in braces. A string of capitals states the bases alone. d = 2'-deoxy (DNA); m = 2'-O-methyl; r = 2'-OH (RNA)

System: PCSK9 mRNA
Assay: PCSK9 siRNA screening in HepG2 cells (lipofectamine 2000 transfection, PCSK9 mRNA by Quantigene, normalized to GAP-DH)
Type: cell-based, human
Conditions: for Mean percent remaining mRNA transcript at siRNA concentration/in cell type 3 nM/HepG2: 3 nM siRNA; for Mean percent remaining mRNA transcript at siRNA concentration/in cell type 30 nM/HepG2: 30 nM siRNA
Outline: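 HepG2 cells, grown in MEM with 10% fetal calf serum, antibiotics, non-essential amino acids and sodium pyruvate at 37° C. and 5% CO2, were plated at 2.0×10^4 cells/well in 96-well plates and transfected directly with siRNA using lipofectamine 2000. After 24 hours, cells were lysed and PCSK9 mRNA was measured by Quantigene and normalized to GAP-DH mRNA.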

Substance: AD-9323: PCSK9 siRNA (sense rGrGrCrCrUrGrGrArGrUrUrUrArUrUrCrGrGrAdT*dT; antisense rUrCrCrGrArArUrArArArCrUrCrCrArGrGrCrCdT*dT)
- Mean percent remaining mRNA transcript at siRNA concentration/in cell type 3 nM/HepG2: 33%
- Mean percent remaining mRNA transcript at siRNA concentration/in cell type 30 nM/HepG2: 14%

Substance: AD-9750: PCSK9 siRNA (sense mCrGmUmCrArGmCmUmCmCrArGrGmCrGrGmUmCmCdT*dT; antisense rGrGrArCrCrGrCrCrUrGrGrArGrCrUrGrArCrGdT*dT)
- Mean percent remaining mRNA transcript at siRNA concentration/in cell type 30 nM/HepG2: 96%

Substance: AD-9690: PCSK9 siRNA (sense mUmCrAmUmUrGrGmUrGmCmCmUmCmCrArGmCrGrAdT*dT; antisense rUrCrGrCrUrGrGrArGrGmCrArCmCrArArUrGrAdT*dT)
- Mean percent remaining mRNA transcript at siRNA concentration/in cell type 30 nM/HepG2: 92%

Substance: AD-9693: PCSK9 siRNA (sense mCrGmCmUrGmUrGmUrGrGrAmCmCmUmCmUmUmUrGdT*dT; antisense mCrArArArGrArGrGrUrCmCrAmCrAmCrArGrCrGdT*dT)
- Mean percent remaining mRNA transcript at siRNA concentration/in cell type 30 nM/HepG2: 50%

Substance: AD-9630: PCSK9 siRNA (sense rGrGrGrCrArGrGrGrUrCrArUrGrGrUrCrArCrCdT*dT; antisense rGrGrUrGrArCrCrArUrGrArCrCrCrUrGrCrCrCdT*dT)
- Mean percent remaining mRNA transcript at siRNA concentration/in cell type 30 nM/HepG2: 82%

Substance: AD-9728: PCSK9 siRNA (sense mCrArGmCrGrGmCmCrGrGrGrAmUrGmCmCrGrGmCdT*dT; antisense rGrCrCrGrGmCrArUrCrCrCrGrGrCrCrGrCrUrGdT*dT)
- Mean percent remaining mRNA transcript at siRNA concentration/in cell type 30 nM/HepG2: 94%

Substance: AD-9729: PCSK9 siRNA (sense mUmUmUmCmUrGrGrAmUrGrGmCrAmUmCmUrArGmCdT*dT; antisense rGrCmUrArGrArUrGrCmCrArUrCmCrArGrArArAdT*dT)
- Mean percent remaining mRNA transcript at siRNA concentration/in cell type 30 nM/HepG2: 56%

Substance: AD-9674: PCSK9 siRNA (sense rGmCrArGmUmCrArGrArGmCrGmCrAmCmUrGmCmCdT*dT; antisense rGrGmCrArGrUrGrCrGrCrUrCrUrGrArCrUrGrCdT*dT)
- Mean percent remaining mRNA transcript at siRNA concentration/in cell type 3 nM/HepG2: 57%
- Mean percent remaining mRNA transcript at siRNA concentration/in cell type 30 nM/HepG2: 36%

Substance: AD-9663: PCSK9 siRNA (sense rAmCrGrGmUrAmCmCrGrGrGmCrGrGrAmUrGrArAdT*dT; antisense rUrUmCrArUrCrCrGrCrCrCrGrGmUrArCrCrGrUdT*dT)
- Mean percent remaining mRNA transcript at siRNA concentration/in cell type 30 nM/HepG2: 102%

Substance: AD-9749: PCSK9 siRNA (sense rGmUmCrArGmCmUmCmCrArGrGmCrGrGmUmCmCmUdT*dT; antisense rArGrGrArCrCrGrCrCrUrGrGrArGrCrUrGrArCdT*dT)
- Mean percent remaining mRNA transcript at siRNA concentration/in cell type 30 nM/HepG2: 105%

Substance: AD-9551: PCSK9 siRNA (sense UGGCGGGUGGGUACAGCCGTsT; antisense CGGCUGUACCCACCCGCCATsT; as printed in the source, key not given here)
- Mean percent remaining mRNA transcript at siRNA concentration/in cell type 30 nM/HepG2: 91%

Substance: AD-9567: PCSK9 siRNA (sense rCrGrCrUrGrUrGrUrGrGrArCrCrUrCrUrUrUrGdT*dT; antisense rCrArArArGrArGrGrUrCrCrArCrArCrArGrCrGdT*dT)
- Mean percent remaining mRNA transcript at siRNA concentration/in cell type 30 nM/HepG2: 41%

Substance: AD-9569: PCSK9 siRNA (sense rArGrCrUrCrCrUrGrCrArCrArGrUrCrCrUrCrCdT*dT; antisense rGrGrArGrGrArCrUrGrUrGrCrArGrGrArGrCrUdT*dT)
- Mean percent remaining mRNA transcript at siRNA concentration/in cell type 30 nM/HepG2: 112%

Substance: AD-9670: PCSK9 siRNA (sense mUrGrArGrGrAmCmCrArGmCrGrGrGmUrAmCmUrGdT*dT; antisense mCrArGmUrArCrCrCrGrCrUrGrGrUrCrCrUmCrAdT*dT)
- Mean percent remaining mRNA transcript at siRNA concentration/in cell type 30 nM/HepG2: 67%

Substance: AD-9641: PCSK9 siRNA (sense rGrGmUrAmCmCrGrGrGmCrGrGrAmUrGrArAmUrAdT*dT; antisense mUrArUrUmCrArUrCrCrGrCrCrCrGrGmUrArCrCdT*dT)
- Mean percent remaining mRNA transcript at siRNA concentration/in cell type 30 nM/HepG2: 92%

Substance: AD-9553: PCSK9 siRNA (sense rUrCrUrArGrArCrCrUrGrUrUrUrUrGrCrUrUrUdT*dT; antisense rArArArGrCrArArArArCrArGrGrUrCrUrArGrAdT*dT)
- IC50: 0.02 nM
- Mean percent remaining mRNA transcript at siRNA concentration/in cell type 3 nM/HepG2: 22%
- Mean percent remaining mRNA transcript at siRNA concentration/in cell type 30 nM/HepG2: 27%

Substance: AD-9683: PCSK9 siRNA (sense mCmCrAmCmCrGrGrGrArArAmUmCrGrArGrGrGmCdT*dT; antisense rGrCrCrCrUrCrGrArUrUrUrCrCrCrGrGrUrGrGdT*dT)
- Mean percent remaining mRNA transcript at siRNA concentration/in cell type 30 nM/HepG2: 48%

Substance: AD-9682: PCSK9 siRNA (sense uGGuGGAGGuGuAucuccuTsT; antisense AGGAGAuAcACCUCcACcATsT; as printed in the source, key not given here)
- Mean percent remaining mRNA transcript at siRNA concentration/in cell type 30 nM/HepG2: 38%

Substance: AD-9745: PCSK9 siRNA (sense mUmCrArGrGrArGmCmCrGrGrGrAmCrGmUmCrArGdT*dT; antisense rCrUrGrArCrGrUrCrCrCrGrGrCrUrCrCrUrGrAdT*dT)
- Mean percent remaining mRNA transcript at siRNA concentration/in cell type 30 nM/HepG2: 56%

Substance: AD-9605: PCSK9 siRNA (sense rUrGrGrUrGrArArGrArUrGrArGrUrGrGrCrGrAdT*dT; antisense rUrCrGrCrCrArCrUrCrArUrCrUrUrCrArCrCrAdT*dT)
- IC50: 0.27 nM
- Mean percent remaining mRNA transcript at siRNA concentration/in cell type 3 nM/HepG2: 31%
- Mean percent remaining mRNA transcript at siRNA concentration/in cell type 30 nM/HepG2: 27%

Substance: AD-9689: PCSK9 siRNA (sense mCrGmCmUrGmCmCrGrGmCrArAmCmUmUmCmCrGrGdT*dT; antisense rCrCrGrGrArArGrUrUrGrCrCrGrGmCrArGrCrGdT*dT)
- Mean percent remaining mRNA transcript at siRNA concentration/in cell type 30 nM/HepG2: 81%

Substance: AD-9721: PCSK9 siRNA (sense mCmUrGrArGrGrAmCmCrArGmCrGrGrGmUrAmCmUdT*dT; antisense rArGmUrArCrCrCrGrCrUrGrGrUrCrCrUmCrArGdT*dT)
- Mean percent remaining mRNA transcript at siRNA concentration/in cell type 3 nM/HepG2: 70%
- Mean percent remaining mRNA transcript at siRNA concentration/in cell type 30 nM/HepG2: 87%

Substance: AD-9571: PCSK9 siRNA (sense rGrCrCrArGrGrUrGrCrUrGrCrCrUrGrCrUrArCdT*dT; antisense rGrUrArGrCrArGrGrCrArGrCrArCrCrUrGrGrCdT*dT)
- Mean percent remaining mRNA transcript at siRNA concentration/in cell type 3 nM/HepG2: 32%
- Mean percent remaining mRNA transcript at siRNA concentration/in cell type 30 nM/HepG2: 27%

Substance: AD-9634: PCSK9 siRNA (sense rCrUrCrUrGrUrUrGrCrCrUrUrUrUrUrArCrArGdT*dT; antisense rCrUrGrUrArArArArArGrGrCrArArCrArGrArGdT*dT)
- Mean percent remaining mRNA transcript at siRNA concentration/in cell type 3 nM/HepG2: 30%
- Mean percent remaining mRNA transcript at siRNA concentration/in cell type 30 nM/HepG2: 29%

Substance: AD-9549: PCSK9 siRNA (sense rGrGrGrCrCrCrArCrArArCrGrCrUrUrUrUrGrGdT*dT; antisense rCrCrArArArArGrCrGrUrUrGrUrGrGrGrCrCrCdT*dT)
- Mean percent remaining mRNA transcript at siRNA concentration/in cell type 30 nM/HepG2: 50%

Substance: AD-9752: PCSK9 siRNA (sense mUrGrArArGrAmUrAmUmUmUrAmUmUmCmUrGrGrGdT*dT; antisense rCrCmCrArGrArAmUrArArAmUrArUrCrUrUmCrAdT*dT)
- Mean percent remaining mRNA transcript at siRNA concentration/in cell type 3 nM/HepG2: 33%
- Mean percent remaining mRNA transcript at siRNA concentration/in cell type 30 nM/HepG2: 28%

Substance: AD-9632: PCSK9 siRNA (sense rCrArArCrUrUrUrGrGrCrCrGrCrUrGrUrGrUrGdT*dT; antisense rCrArCrArCrArGrCrGrGrCrCrArArArGrUrUrGdT*dT)
- Mean percent remaining mRNA transcript at siRNA concentration/in cell type 30 nM/HepG2: 34%

Substance: AD-9547: PCSK9 siRNA (sense rCrUrCrGrCrArGrUrCrArGrArGrCrGrCrArCrUdT*dT; antisense rArGrUrGrCrGrCrUrCrUrGrArCrUrGrCrGrArGdT*dT)
- IC50: 0.2 nM
- Mean percent remaining mRNA transcript at siRNA concentration/in cell type 3 nM/HepG2: 29%
- Mean percent remaining mRNA transcript at siRNA concentration/in cell type 30 nM/HepG2: 31%

Substance: AD-9645: PCSK9 siRNA (sense mCmCmCrArGmCmCrArGrGrAmUmUmCmCrGmCrGmCdT*dT; antisense rGrCrGrCrGrGrArArUrCrCrUrGrGrCrUrGrGrGdT*dT)
- Mean percent remaining mRNA transcript at siRNA concentration/in cell type 30 nM/HepG2: 66%

Substance: AD-9566: PCSK9 siRNA (sense rUrGrCrCrGrGrGrCrCrCrArCrArArCrGrCrUrUdT*dT; antisense rArArGrCrGrUrUrGrUrGrGrGrCrCrCrGrGrCrAdT*dT)
- Mean percent remaining mRNA transcript at siRNA concentration/in cell type 30 nM/HepG2: 38%

Substance: AD-9737: PCSK9 siRNA (sense mUmCmCmUrArGrAmCrAmCmCrArGmCrAmUrAmCrAdT*dT; antisense rUrGmUrArUrGrCrUrGrGrUrGrUrCmUrArGrGrAdT*dT)
- Mean percent remaining mRNA transcript at siRNA concentration/in cell type 30 nM/HepG2: 68%

Substance: AD-9676: PCSK9 siRNA (sense rGrArGrGrGmUrGmUmCmUrAmCrGmCmCrAmUmUrGdT*dT; antisense mCrArArUrGrGrCrGmUrArGrAmCrArCrCrCrUrCdT*dT)
- Mean percent remaining mRNA transcript at siRNA concentration/in cell type 30 nM/HepG2: 100%

Substance: AD-9531: PCSK9 siRNA (sense rArArArUrCrGrArGrGrGrCrArGrGrGrUrCrArUdT*dT; antisense rArUrGrArCrCrCrUrGrCrCrCrUrCrGrArUrUrUdT*dT)
- IC50: 0.53 nM
- Mean percent remaining mRNA transcript at siRNA concentration/in cell type 3 nM/HepG2: 32%
- Mean percent remaining mRNA transcript at siRNA concentration/in cell type 30 nM/HepG2: 31%

Substance: AD-9622: PCSK9 siRNA (sense rCrUrGrUrCrCrCrUrCrCrUrUrGrArGrCrArCrCdT*dT; antisense rGrGrUrGrCrUrCrArArGrGrArGrGrGrArCrArGdT*dT)
- Mean percent remaining mRNA transcript at siRNA concentration/in cell type 30 nM/HepG2: 94%
